Assay in all cases: ≥ marks a high value that may be exact or a test limit, other limits are often not marked, values filed in µg/mL are converted to µM
For assay [1], the system named is Pseudomonas aeruginosa PAO1.
Assay [2] concerns Candida albicans ATCC 64550.
The test system of assay [3] is Escherichia coli ATCC 35218.
Assay [4] concerns Pseudomonas aeruginosa ATCC 9027.
The subject of assay [5] is Staphylococcus aureus ATCC 25923.
Assay [6] has as its system Bacillus cereus ATCC 11778.
The subject of assay [7] is Pseudomonas fluorescens NCIMB 9046.
Assay [8] deals with Cronobacter sakazakii DSM 4485.
The test system of assay [9] is Staphylococcus aureus NCTC 8325-4.
Assay [10] relates to Staphylococcus aureus RN4220.
Assay [11] has as its system Staphylococcus aureus Newman.
Assay [12] has as its system Staphylococcus aureus RF122.
The test system of assay [13] is Escherichia coli NCIMB 11843.
Assay [14] relates to Cronobacter sakazakii ATCC BAA-894.
Assay [15] has as its system Cronobacter sakazakii DPC 6440.
Assay [16] has as its system Staphylococcus aureus SA113.
Assay [17] relates to Salmonella enterica subsp. enterica serovar Typhimurium LT2.
Assay [18] has as its system Cronobacter muytjensii ATCC 51329.
The test system of assay [19] is Klebsiella pneumoniae NCIMB 13218.
In assay [20] the test system is Klebsiella pneumoniae ATCC 700603.
For assay [21], the system named is Staphylococcus aureus ATCC 33591.
The subject of assay [22] is Pseudomonas aeruginosa ATCC 27853.
For assay [23], the system named is Staphylococcus aureus ATCC 29213.
Assay [24] has as its system Escherichia coli ATCC 25922.
Assay [25] relates to Staphylococcus aureus ATCC 700699.
The subject of assay [26] is Bacillus subtilis ATCC 23857.
The subject of the next assay is Candida glabrata 090902.
For assay [27], the system named is Enterococcus faecalis 981.
Assay [28] has as its system Psychrobacter faecalis X29.
In assay [29] the test system is Nocardia asteroides 201118.

≈ marks a conversion by molar mass, not a printed value. Where only a bound is given, the exact number is not on record here.

As a reminder, the MIC is the least concentration at which growth counts as inhibited. Consider `CC[C@H](C)[C@H](NC(=O)[C@H](CCCN=C(N)N)NC(=O)[C@H](CC(C)C)NC(=O)[C@H](CCCN=C(N)N)NC(=O)[C@@H](N)C(C)C)C(=O)N[C@@H](CCCN=C(N)N)C(=O)N[C@H](C(=O)N[C@@H](C)C(N)=O)C(C)C` [VRLRIRVA], for which the MIC in assay [1] came to 10.2 µM (≈ 9.99 µg/mL); in [2], 25 µM (≈ 24.5 µg/mL).
As to `CC(C)C[C@H](NC(=O)[C@@H](NC(=O)[C@@H](N)CCCCN)C(C)C)C(=O)N[C@@H](CCCCN)C(=O)N[C@@H](C)C(=O)N[C@@H](C)C(=O)N[C@@H](C)C(N)=O` [KVLKAAA], the MIC in [3] is at least 50 µM; in assay [4] it was over 50 µM; in [5], over 50 µM; in assay [6], at least 50 µM.
For `CC[C@H](C)[C@H](N)C(=O)N[C@@H](CCCCN)C(=O)N[C@@H](CCC(N)=O)C(=O)NCC(=O)N[C@@H](CC(C)C)C(=O)N1CCC[C@H]1C(=O)N[C@@H](CCC(N)=O)C(=O)N[C@@H](CCC(=O)O)C(=O)O` [IKQGLPQE], the MIC in [7], in assay [8], in assay [9], in assay [10], in [11] and in assay [12] was at least 2500 µM in each case. The MIC in assay [13], in assay [14], in assay [15], in [16], in assay [17] and in assay [18] was at least 2500 µM in each case. This compound came in with an MIC in assay [19] of at least 2500 µM.
As for `CC[C@H](C)[C@H](NC(=O)[C@H](CC(=O)O)NC(=O)[C@H](CCCCN)NC(=O)[C@H](C)NC(=O)[C@H](C)NC(=O)CNC(=O)[C@H](CCCCN)NC(=O)[C@H](CC(C)C)NC(=O)[C@@H](NC(=O)[C@H](CC(=O)O)NC(=O)[C@@H](NC(=O)[C@@H](NC(=O)CN)C(C)C)C(C)C)[C@@H](C)CC)C(=O)N[C@@H](C)C(=O)NCC(=O)N[C@@H](C)C(=O)N[C@@H](CC(C)C)C(=O)N[C@@H](C)C(=O)N[C@@H](CO)C(=O)N[C@@H](CCCCN)C(=O)N[C@H](C(=O)N[C@@H](CCSC)C(=O)N[C@@H](CC(N)=O)C(=O)N[C@@H](CCCCN)C(=O)N[C@@H](CC(C)C)C(N)=O)C(C)C` [GVVDILKGAAKDIAGALASKVMNKL], the MIC is 100 µM (≈ 248 µg/mL) in [20]; at least 100 µM in [21]; over 100 µM in assay [22]; over 100 µM in assay [23]; 100 µM (≈ 248 µg/mL) in assay [24]; at least 100 µM in [25].
In the case of `CC(C)C[C@H](NC(=O)[C@H](CC(C)C)NC(=O)[C@H](CCCCN)NC(=O)[C@H](CCCCN)NC(=O)[C@H](Cc1c[nH]c2ccccc12)NC(=O)[C@H](Cc1c[nH]c2ccccc12)NC(=O)[C@H](CCCCN)NC(=O)[C@H](CC(C)C)NC(=O)[C@H](CC(C)C)NC(=O)[C@@H](N)CCCCN)C(N)=O` [KLLKWWKKLL], the MIC was determined as 8 µM (≈ 10.8 µg/mL) in assay [26]; 16 µM (≈ 21.7 µg/mL) in assay [5]; 8 µM (≈ 10.8 µg/mL) in assay [22]; 16 µM (≈ 21.7 µg/mL) in assay [24]; 12.5 µM (≈ 16.9 µg/mL) in assay [2].
`CC[C@H](C)[C@@H]1NC(=O)[C@H](CCC(=O)O)NC(=O)[C@@H](NC(=O)[C@@H](NC(=O)[C@@H](NC(=O)[C@H](CCCCN)NC(=O)[C@@H]2CCCN2C(=O)[C@H](CC(C)C)NC(=O)[C@H](Cc2ccccc2)NC(=O)[C@H](CC(C)C)NC(=O)[C@@H]2CCCN2C(=O)[C@H](CC(C)C)NC(=O)[C@@H](N)Cc2ccccc2)[C@@H](C)CC)[C@@H](C)CC)CSSC[C@@H](C(=O)O)NC(=O)[C@H](CCCCN)NC(=O)[C@H](CCCCN)NC(=O)[C@H]([C@@H](C)O)NC1=O` [FLPLFLPKIICEITKKC]: the MIC is 25 µM (≈ 50.1 µg/mL) in the assay on Candida glabrata 090902; at least 50 µM in assay [27]; 100 µM (≈ 200 µg/mL) in assay [5]; at least 50 µM in assay [28]; 25 µM (≈ 50.1 µg/mL) in assay [29].
`CC(C)C[C@H](NC(=O)[C@H](CC(N)=O)NC(=O)[C@H](CCC(=O)O)NC(=O)[C@H](CC(N)=O)NC(=O)[C@H](CC(C)C)NC(=O)[C@@H](N)C(C)C)C(=O)N[C@@H](C)C(=O)N[C@@H](C)C(=O)O` [VLNENLAA]: the MIC in assay [7] is at least 2500 µM; in assay [8], at least 312 µM; in [9], at least 2500 µM; in [10] it was at least 312 µM; in [11], at least 1250 µM; in assay [12], at least 156 µM. Further, the MIC in assay [13] was at least 2500 µM; in assay [14], at least 1250 µM; in assay [15] it was at least 1250 µM; in assay [16], at least 1250 µM; in assay [22], 64 µM (≈ 53.9 µg/mL); in assay [17], at least 2500 µM. Moreover, the MIC in assay [18] and in [19] was at least 2500 µM in each case.
Regarding `CC[C@H](C)[C@H](NC(=O)[C@H](CC(=O)O)NC(=O)[C@H](CCCCN)NC(=O)[C@H](C)NC(=O)[C@H](C)NC(=O)CNC(=O)[C@H](CCCCN)NC(=O)[C@H](CC(C)C)NC(=O)[C@@H](NC(=O)[C@H](CC(=O)O)NC(=O)[C@H](C)NC(=O)[C@@H](NC(=O)CN)C(C)C)[C@@H](C)CC)C(=O)N[C@@H](C)C(=O)NCC(=O)N[C@@H](Cc1cnc[nH]1)C(=O)N[C@@H](CC(C)C)C(=O)N[C@@H](C)C(=O)N[C@@H](CO)C(=O)N[C@@H](CCCCN)C(=O)N[C@H](C(=O)N[C@@H](CCSC)C(=O)N[C@@H](CC(N)=O)C(=O)N[C@@H](CCCCN)C(=O)N[C@@H](CC(C)C)C(N)=O)C(C)C` [GVADILKGAAKDIAGHLASKVMNKL], the MIC in [20] is 100 µM (≈ 252 µg/mL); in assay [21], at least 100 µM; in assay [22], over 100 µM; in [23], over 100 µM; in [24] it was over 100 µM; in assay [25], at least 100 µM.

For the origin of these results see DBAASP.
